Some test systems named below: CCRF-CEM; COLO 205; HCT-116; HL-60; HOP-62; HOP-92; HT-29; K562; LXFL 529; Malme-3M; NCI-H226; RPMI-8226; SK-MEL-28; SK-MEL-5; SK-OV-3; SNB-75; U-251; UO-31; SR.
Holding throughout (experiment): NCI-60 cell line screen, 48 h

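Each compound was tested at five concentrations against cells in 96-well plates for 48 hours. The concentration for 50% growth inhibition is given as GI50.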 Active and inactive are the calls of the source. No stated cut-off is given here; in the data, active = GI50 up to about 1.1 µM and inactive = higher. Some results are limits rather than exact numbers.

Consider `O=C(OCCCl)C1OC(n2cc(F)c(=O)[nH]c2=O)CC1O` (stereo not drawn), for which the GI50 in the assay on CCRF-CEM is > 100 µM (inactive); in the assay on COLO 205, > 100 µM (inactive); with HCT-116, > 100 µM (inactive); in the assay on HL-60, > 100 µM (inactive); with HOP-62, > 100 µM (inactive); in the assay on HOP-92, 57.8 µM (inactive). The GI50 with HT-29, in the assay on K562, in the assay with LXFL 529, in the assay with Malme-3M, with NCI-H226 and in the assay on RPMI-8226 was > 100 µM (inactive) each time. Further, the GI50 with SK-MEL-28, in the assay with SK-MEL-5, in the assay with SK-OV-3, in the assay on SNB-75, in the assay on U-251 and in the assay with UO-31 was > 100 µM (inactive) throughout.

On to `COc1cc(Cl)cc(O)c(=O)c1OC`, for which the GI50 in the assay with CCRF-CEM is 12.7 µM (inactive); with COLO 205, 28.7 µM (inactive); in the assay on HCT-116, 35.8 µM (inactive); in the assay on HL-60, 2.15 µM (inactive); with HOP-62, 41.1 µM (inactive); in the assay on HT-29, 64.3 µM (inactive). Also, the GI50 is 36.5 µM (inactive) in the assay with K562; 53.3 µM (inactive) with LXFL 529; 54.7 µM (inactive) with Malme-3M; 25.2 µM (inactive) with NCI-H226; 15.8 µM (inactive) in the assay on RPMI-8226; 92.7 µM (inactive) with SK-MEL-28. Further, the GI50 in the assay with SK-OV-3 is > 62.5 µM (inactive); in the assay with SNB-75, 59.2 µM (inactive); with SR it was 2.2 µM (inactive); in the assay on U-251, 40.1 µM (inactive); with UO-31, 42.4 µM (inactive).

Consider `N#CCCN(CCC#N)c1ccc(/C=C2\N=C(CN3C(=O)c4ccccc4C3=O)OC2=O)cc1`, for which the GI50 in the assay with HCT-116, in the assay with HL-60, in the assay on HOP-62, in the assay on HT-29, with K562 and in the assay with LXFL 529 was > 100 µM (inactive) throughout. Further, the GI50 was > 100 µM (inactive) in the assay with Malme-3M; > 100 µM (inactive) with NCI-H226; 39.3 µM (inactive) with RPMI-8226; > 100 µM (inactive) in the assay on SK-MEL-28; > 100 µM (inactive) with SK-MEL-5; > 100 µM (inactive) with SK-OV-3. Moreover, the GI50 in the assay on SNB-75, in the assay with SR, with U-251 and in the assay with UO-31 was > 100 µM (inactive) throughout.

As for `Cc1ccc(NCC(=O)N2CC(=O)Nc3ccccc32)cc1`, the GI50 in the assay with CCRF-CEM, in the assay on COLO 205, in the assay with HCT-116, in the assay on HL-60, in the assay with HOP-62 and in the assay on HOP-92 was > 100 µM (inactive) throughout. Further, the GI50 in the assay with HT-29, in the assay on K562, in the assay on LXFL 529, with Malme-3M, in the assay on NCI-H226 and in the assay with RPMI-8226 was > 100 µM (inactive) in each case. In addition, the GI50 in the assay with SK-MEL-28, with SK-MEL-5, in the assay on SK-OV-3, in the assay with SNB-75, in the assay on SR and in the assay on U-251 was > 100 µM (inactive) in each case. The GI50 with UO-31 is > 100 µM (inactive).

Turning to `CN(C)CCNC(=O)c1ccc(C(=O)NCCN(C)C)c2nc3ccccc3cc12`, the GI50 in the assay on CCRF-CEM is 0.676 µM (active); with COLO 205, 0.469 µM (active); in the assay on HCT-116, 0.301 µM (active); in the assay with HL-60, 0.826 µM (active); with HOP-62 it was 0.979 µM (active); in the assay on HOP-92, 1.41 µM (inactive). Further, the GI50 was 0.452 µM (active) in the assay on HT-29; 0.61 µM (active) with K562; 0.729 µM (active) with LXFL 529; 1.38 µM (inactive) in the assay with Malme-3M; 1.16 µM (inactive) with NCI-H226; 1.74 µM (inactive) in the assay on SK-MEL-28. Further, the GI50 was 1.49 µM (inactive) in the assay with SK-MEL-5; 0.916 µM (active) with SK-OV-3; 1.71 µM (inactive) with SNB-75; 0.399 µM (active) in the assay with SR; 0.533 µM (active) in the assay on U-251; 4.81 µM (inactive) in the assay on UO-31.

As to `NCCCCCS(=O)(=O)O`, the GI50 in the assay on CCRF-CEM, in the assay with COLO 205, with HCT-116, in the assay with HL-60, with HOP-62 and in the assay on HT-29 was > 100 µM (inactive) throughout. For the same compound, the GI50 with K562, in the assay on LXFL 529, in the assay on Malme-3M, with SK-MEL-28, with SK-MEL-5 and in the assay on SK-OV-3 was > 100 µM (inactive) in each case. The GI50 in the assay with SNB-75, in the assay on SR, in the assay with U-251 and in the assay with UO-31 was > 100 µM (inactive) each time.

Consider `Cc1ccc(C2CC(c3ccco3)=NN2c2ccccc2)o1` (stereo not drawn), for which the GI50 in the assay with CCRF-CEM, in the assay on COLO 205, in the assay with HCT-116, in the assay with HL-60, with HOP-62 and in the assay on HT-29 was > 100 µM (inactive) throughout. The GI50 in the assay with K562, in the assay with LXFL 529, with Malme-3M, in the assay on NCI-H226, in the assay with RPMI-8226 and in the assay on SK-MEL-28 was > 100 µM (inactive) throughout. Moreover, the GI50 with SK-MEL-5, with SNB-75, in the assay with SR, in the assay with U-251 and in the assay on UO-31 was > 100 µM (inactive) throughout.

On to `COCc1c(CO)cnc(C)c1OC1OC(CO)C(O)C(O)C1O` (stereo not drawn), for which the GI50 in the assay on HCT-116, with HOP-62, in the assay with HT-29, in the assay with K562, in the assay with LXFL 529 and in the assay with Malme-3M was > 100 µM (inactive) throughout. Also, the GI50 in the assay with NCI-H226, with RPMI-8226, in the assay on SK-MEL-28, in the assay with SK-MEL-5, with SK-OV-3 and with SNB-75 was > 100 µM (inactive) in each case. Further, the GI50 in the assay with SR, in the assay on U-251 and in the assay with UO-31 was > 100 µM (inactive) each time.

Turning to `Cn1c2ccccc2c(=O)c2c([N+](=O)[O-])ccc(NCCN)c21`, the GI50 is 5.36 µM (inactive) with COLO 205; 3.73 µM (inactive) in the assay with HCT-116; 4.17 µM (inactive) with HL-60; 14 µM (inactive) with HOP-62; 6.76 µM (inactive) in the assay with HOP-92; 4.47 µM (inactive) in the assay on HT-29. Further, the GI50 with LXFL 529 is 8.63 µM (inactive); in the assay with Malme-3M it was 14.9 µM (inactive); in the assay on NCI-H226, 13.7 µM (inactive); with SK-MEL-28, 15.3 µM (inactive); in the assay on SK-MEL-5, 13.2 µM (inactive); with SK-OV-3, 15.7 µM (inactive). The GI50 with SNB-75 was 12.1 µM (inactive); in the assay with SR, 20.1 µM (inactive); with U-251, 12.8 µM (inactive); with UO-31, 5.64 µM (inactive).

Take `CC(=O)OCc1cc(OC(C)=O)cnc1COC(C)=O`: the GI50 in the assay on CCRF-CEM, with COLO 205, in the assay with HCT-116, in the assay with HL-60, with HOP-62 and in the assay on HOP-92 was > 100 µM (inactive) in each case. In addition, the GI50 in the assay on HT-29, with K562, in the assay with LXFL 529, in the assay with Malme-3M, with NCI-H226 and in the assay on SK-MEL-28 was > 100 µM (inactive) throughout. The GI50 with SK-MEL-5, with SK-OV-3, in the assay on SNB-75, with SR, in the assay with U-251 and in the assay with UO-31 was > 100 µM (inactive) throughout.

For `CC1(C)C(=O)/C=C\C(=O)C(C)(C)C2=CC=C(O2)C(C)(C)C(=O)/C=C\C(=O)C(C)(C)C2=CC=C1O2`, the GI50 in the assay with CCRF-CEM, in the assay with COLO 205, in the assay with HCT-116, in the assay on HL-60, in the assay with HOP-62 and with HOP-92 was > 100 µM (inactive) each time. Further, the GI50 in the assay on HT-29, in the assay on K562, in the assay with LXFL 529, with Malme-3M, in the assay on NCI-H226 and in the assay on SK-MEL-28 was > 100 µM (inactive) in each case. For the same compound, the GI50 in the assay with SK-OV-3, in the assay with SR and with U-251 was > 100 µM (inactive) each time.

With `C/C(CN1C(=O)c2ccccc2C1=O)=N\NS(=O)(=O)c1ccc2ccccc2c1`, the GI50 in the assay with CCRF-CEM, in the assay with COLO 205, in the assay with HCT-116, in the assay with HL-60, in the assay with HOP-62 and in the assay on HT-29 was > 100 µM (inactive) each time. Further, the GI50 in the assay with K562, in the assay with LXFL 529, in the assay on Malme-3M, in the assay with NCI-H226, with RPMI-8226 and in the assay on SK-MEL-28 was > 100 µM (inactive) each time. Moreover, the GI50 was > 100 µM (inactive) with SK-MEL-5; > 100 µM (inactive) with SK-OV-3; 32.1 µM (inactive) in the assay on SNB-75; > 100 µM (inactive) with SR; > 100 µM (inactive) in the assay with U-251; > 100 µM (inactive) in the assay with UO-31.
